Experiments:
[1] = tested on: H9c2 rat cardiac myoblasts; test: Morphological observation of muscle differentiation of myoblasts in DM; type: cell-based; details: 72 hours in DM
Method: As a control, myoblasts were cultured in the absence of the drugs. Before use, the myoblasts were cultured to a cell confluency of about 70%.

myogenin and MRF4 = test: Western blot of myogenic markers myogenin and MRF4; type: cell-based, rat; details: DM
Method: In addition, the protein expression levels of the myogenin and MRF4, early and late myogenic markers, were determined by Western blot analysis. To this end, myoblast extracts treated with the drugs were separated on SDS-PAGE and transferred onto a nitrocellulose membrane which was then blocked and reacted with predetermined primary antibodies (polyclonal myogenic antibody and polyclonal MRF4 antibody (Santa Cruz, Calif., USA) and then with a secondary antibody (anti-rabbit IgG-HRP conjugate with a chemiluminescent reactive enzyme able to detect the primary antibodies) (Santa Cruz, Calif., USA). Finally, the specimens were detected by enhanced ECL-plus chemiluminescence (Amersham Pharmacia Biotech, Piscataway, N.J., USA). Non-myogenic β-actin protein was used as a loading control.

H9c2 myoblasts = test: Apoptosis by in-situ TUNEL assay and DNA fragmentation analysis; type: cell-based, rat; details: 72 hours in DM
Method: TUNEL analysis was performed using ApopTag Flurescein In situ Apoptosis Detection kit (Intergen, Purchase, N.Y.). The results are given in FIG. 2c where arrows indicate TUNEL positive cells.
Once cells undergo apoptosis, the DNA is digested into fragments diferring by 180-200 bp by endonuclease. […] DNA fragmentation aiming to identify the DNA laddering pattern was performed as follows. […] The cell lysates thus obtained were treated with 50 μg/ml RNase A at 37° C. for 2 hours and then with 500 μg/ml proteinase K at 55° C. for 2 hours. DNA was extracted by a phenol/chloroform method and precipitated in 70% (v/v) isopropanol. After being centrifuged at 15,000 rpm for 15 min, the precipitates were dissolved in a TE buffer (10 mM Tris-HCl (pH 8.0), 1 mM EDTA).

ROS = test: Cellular ROS level by DCF flow cytometry (FACS); type: cell-based, rat; details: 10 μM, 24 hours in DM
Method: H9c2 myoblasts were cultured for 24 hours in PM and in DM, and then in the presence of 10 μM DCF (2′,7′-dichlorofluorescein). After being harvested, the cells were washed once with PBS and resuspended in […] of PBS. The cellular levels of ROS generated were measured by flow cytometry (FACS), there values were regarded as controls. […] ROS levels were analyzed by FACS. […] ROS levels were measure as the above. The results are given in FIG. 5a where numerals indicate mean±standard deviation values of the ROS levels in the cells.

Structure (SMILES): C/C=C/C[C@@H](C)[C@@H](O)[C@H]1C(=O)N[C@@H](CC)C(=O)N(C)CC(=O)N(C)[C@@H]([C@@H](C)CC)C(=O)N[C@@H](C(C)C)C(=O)N(C)[C@@H](CC(C)C)C(=O)N[C@@H](C)C(=O)N[C@H](C)C(=O)N(C)[C@@H](CC(C)C)C(=O)N(C)[C@@H](CC(C)C)C(=O)N(C)[C@@H](C(C)C)C(=O)N1C [SDZ NIM811]
- morphological changes during muscle differentiation [1]: blocks the myoblast differentiation
- myogenin and MRF4 protein expression (myogenin and MRF4; 1 μM): partial suppression
- myogenin and MRF4 protein expression (myogenin and MRF4; concentrations higher than 1 μM): complete suppression
- apoptosis (TUNEL, DNA laddering) (H9c2 myoblasts): dose dependent
- ROS level (mean±standard deviation) (ROS): 634±20

— patent publication US20080181875A1, “USE OF CYCLOPHILIN AS ANTIOXIDANT AND PREVENTION OF CYCLOSPORIN A-INDUCED TOXICITY IN CELL TRANSPLANTATION BY OVEREXPRESSION OF CYCLOPHILIN” (priority 2002, published 2008)
